# From patent publication US7135457B1, “Random peptides that bind to gastro-intestinal tract (GIT) transport receptors and related methods” (Cytogen Corporation, priority 1997, dated 2006)
# Square brackets hold non-standard residues; d marks the D form. Peptide text beside a SMILES is read from it. * marks the point of attachment. Dansyl = CN(C)c1cccc2c(S(=O)(=O)*)cccc12
# Experiments:
# [1] = Peptide stability in simulated intestinal fluid (SIF); type: in vitro ADME; settings: rank of relative stability to SIF, 1 = most stable
# Experimental: The relative stability for ZElan031, ZElan053 and ZElan054 was determined in simulated intestinal fluid (SIF) SIF was made by dissolving 100 mg of pancreatin (Sigma cat# P-5 1625, lot# 122H0812) in 8.4 ml of phosphate stock solution, adjusting the pH to 7.5 with 0.2N NaOH and adjusting the volume to 10 ml with water.
# Peptide (3.25 mg) was dissolved in 3.25 ml of 10,000 fold diluted SIF solution at 37° C. Aliquots (0.7 ml) of the digestion solution were then withdrawn at <1 min, 1 h, 3 h, and 21 h or 24 h. The samples were quickly passed through a syringe filter (Millipore Millex-GV 0.22 μm, part# SLGV025LS, lot# H2BM95250) and 300 μL of the filtered solution was immediately injected onto a Hewlett-Packard HPLC system equipped with a C-8 column (Applied Biosystems column and guard column: column-p/n 0711-0023 Spheri-5 ODS 5 μm, 220×4.6 mm). The products were eluted at 1.5 ml/min using an acetonitrile-water gradient. The major fluorescent peaks were collected, lyopholized and identified by MS analysis.
# [2] = test system: P100 fractions harvested from Caco-2 cells; assay: Binding of dansylated peptides to P100 fractions and peptide/particle correlation; settings: two consecutive assays; versus scrambled PAX2 control
# Experimental: Binding of peptide and/or peptide-coated PLGA particles to membrane (P100) and cytosolic (S100) fractions was assessed by detection of the dansyl moiety incorporated in the peptide. Costar ninety six well ELISA plates were coated with S100 and P100 fractions (100 μg/ml in 0.05 M NaHCO3) overnight at 4° C. The plates were blocked with 0.5% bovine serum albumin in DPBS for 1 h at room temperature and washed 3 times in 1% BSA-DPBS. Peptide-coated particles or peptides were dispersed in the same buffer and added to the plates at concentrations in the range 0.0325-0.5 mg/well. […] The plates were incubated for 1 h at room temperature. The wells were washed 3 times in 1% BSA-DPBS and 100 μl of goat anti-mouse IgGλ:HRP antibody (Southern Biotechnology 1060-05; 1:10,000) was added per well. The plates were incubated for 1 h at room temperature. After washing 3 times in 1% BSA-DPBS 100 μl of TMB substrate (3,3′,5′,5-tetramethylbenzidine; Microwell Peroxidase Substrate System (Kirkegaard and Perry Laboratories 50-76-00)) was added and the optical density was measured at 650 nm at various time intervals.
# Binding of dansylated peptides to P100 fractions was assessed to determine if peptide binding was predictive of peptide-coated particle binding.
# [3] = test system: fixed Caco-2 or C2BBe1 cells; assay: ELISA of GST fusion proteins on fixed Caco-2 or C2BBe1 cells; type: binding; settings: Caco-2
# Experimental: Fixed Caco-2, C2BBe1, and A431 cell plates were prepared by growing cells on tissue culture treated microtiter plates. When cells were confluent, plates were fixed with 10% formaldehyde, washed twice with PBS and stored with 0.5% BSA-PBS at −20° C. […] The standard ELISA procedure was followed at this point.
# The standard ELISA procedure was modified as follows. GST proteins were diluted to an appropriate concentration in PBS containing 1% BSA and 0.05% Tween20 (1% BPT), titered and incubated one hour at room temperature. Following five washes an anti-GST monoclonal antibody was added (Sigma, St. Louis Clone GST-2 diluted 1:10,000 in 1% BPT) and incubated one hour. After five more washes goat anti-mouse IgG2b-HRP was added (Southern Biotechnology Associates Inc., Birmingham, Ala., diluted 1:4000 in 1% BPT) and incubated one hour. After five washes plates were developed with TMB peroxidase substrate (Kirkegard and Perry, Gaithersburg, Md.). All data is presented with background binding subtracted.
# [4] = test system: polarized Caco-2 monolayers; assay: Transport and uptake of GST-peptide fusions across/into polarized Caco-2 monolayers (anti-GST ELISA); type: in vitro ADME; settings: 100 μg/ml GST fusion
# Experimental: Transport and uptake of GST-peptide fusions and deletion derivatives across cultured polarized Caco-2 monolayers over 4 hours in HBSS buffer was examined using an anti-GST ELISA assay. In another experiment, transport and uptake of GST-peptide fusions and deletion derivatives across cultured polarized Caco-2 monolayers over 24 hours in serum-free medium (SFM) was examined using an anti-GST ELISA assay.
# a) 4 h HBSS study: Transepithelial electrical flux (TER) across the Caco-2 monolayers grown on snapwells (passage 33; 23 days old) was measured to confirm monolayer integrity before beginning the experiment. The medium was removed and the cells were washed once with bHBSS. bHBSS containing 100 μM chloroquine was added and the cells were incubated for 2 h at 37° C. The bHBSS+chloroquine was replaced with 0.5 ml bHBSS containing GST-peptide fusions (100 μg/ml) and the cells were incubated as before. […] At 4 h, TER was measured, the apical medium was sampled and the apical reservoir was washed 6 times with HBSS. […]
# b) 24 h SFM study: Transepithelial electrical flux (TER) across the Caco-2 monolayers grown on snapwells (passage 33; 23 days old) was measured to confirm monolayer integrity before beginning the experiment. […] After 24 hours, TER readings were taken, and samples from the basolateral and apical reservoirs were removed. […]
# fixed Caco-2 cells = assay: Effect of thrombin cleavage on binding of GST-peptide fusions to fixed Caco-2 cells; settings: Caco-2
# Experimental: Binding of intact and thrombin-cleaved GST-peptide fusions to fixed Caco-2 cells was compared.
# Thirty micrograms of each GST-peptide was treated with bovine thrombin (1μ/ml; 0.4 NIH units; Sigma CN.T9681) for 18 h at room temperature in 20 mM Tris-HCl pH8.0, 150 mM NaCl, 2.5 mM CaCl2. Controls were similarly treated without addition of thrombin. Ten micrograms of each GST-peptide fusion was removed for PAGE analysis, and 10 μg of fusions were added in duplicate to the fixed Caco-2 cells before 5-fold serial dilutions (1% BPT diluent). The fusions were allowed to bind for 1 h at room temperature. Following 6 washes with 1% BPT, binding was assayed by ELISA.
# [5] = Crossreactive binding of GST fusions to dansylated peptides; settings: for crossreactive binding to ZElan024 (P31) and ZElan018 (PAX2): 0.5 μg/ml GST fusion
# [6] = test system: P100 membrane fraction derived from Caco-2 cells; assay: GST-PAX2 peptides relative binding to P100 fractions; settings: 20 μg/ml; binding to plastic subtracted; GST-HAX42 = 1.00
# Experimental: The peptides and proteins were analyzed by a dansylated peptide ELISA method in which 96 well plates were coated overnight at 4° C. with 100 μl/well coating protein (normally 100 μg/ml P100 membrane fraction) in 0.05M carbonate buffer pH9.6. Nonspecific binding was blocked using 200 μl/well, 2% Marvel/PBS for 2 hours at 37° C. prior to incubation with dansylated peptides. The plates were washed three times with PBS/0.05% Tween 20 and after each subsequent incubation step. […] A buffer blank control was included to ensure that background binding to plastic was not due to the antibodies used in the assay system. […] The plates were then incubated with an anti-mouse λ-HRP conjugated antibody (Southern Biotech 1060-05) at a 1:10,000 dilution in blocking solution, 100 μl/well for 1 hour at room temperature. Plates were developed using 75 μl/well Bionostics TMB substrate and incubated for approximately 10 minutes. The developing reaction was stopped using Bionostics Red Stop solution (25 μl/well), and the optical density of the plates was read at 650 nm.
# After subtraction of the GST-peptide binding to plastic from P100 binding values, the binding of GST-PAX2 peptides were represented as a ratio of GST-HAX42 binding to P100, which was given the arbitrary value of 1.00. The following ratios were determined from binding to P100 of GST-peptides at a peptide concentration of 20 μg/ml. Bold denotes positive binding to the P100 membrane fraction.
Compound,Rel. Stab. [1],binding to fixed Caco-2 or C2BBe1 cells relative to GST control [3],Value: binding to P100 as a ratio of GST-HAX42 binding [6],also measured
C[C@@H](O)[C@H](NC(=O)[C@@H](N)CCCCNS(=O)(=O)c1cccc2c(N(C)C)cccc12)C(=O)N[C@@H](CCCNC(=N)N)C(=O)N[C@@H](CCCCN)C(=O)N[C@@H](CO)C(=O)N[C@@H](CO)C(=O)N[C@@H](CCCNC(=N)N)C(=O)N[C@@H](CO)C(=O)N[C@@H](CC(N)=O)C(=O)N1CCC[C@H]1C(=O)N[C@@H](CCCNC(=N)N)C(=O)NCC(=O)N[C@@H](CCCNC(=N)N)C(=O)N[C@@H](CCCNC(=N)N)C(=O)N[C@@H](Cc1c[nH]cn1)C(=O)N1CCC[C@H]1C(=O)NCC(N)=O [ZElan031] (H-K(Dansyl)TRKSSRSNPRGRRHPG-NH2),3,–,–,–
"C[C@@H](O)[C@H](NC(=O)[C@@H](N)CCCCNS(=O)(=O)c1cccc2c(N(C)C)cccc12)C(=O)N[C@H](CCCNC(=N)N)C(=O)N[C@@H](CCCCN)C(=O)N[C@@H](CO)C(=O)N[C@@H](CO)C(=O)N[C@H](CCCNC(=N)N)C(=O)N[C@@H](CO)C(=O)N[C@@H](CC(N)=O)C(=O)N1CCC[C@H]1C(=O)N[C@H](CCCNC(=N)N)C(=O)NCC(=O)N[C@H](CCCNC(=N)N)C(=O)N[C@H](CCCNC(=N)N)C(=O)N[C@@H](Cc1c[nH]cn1)C(=O)N1CCC[C@H]1C(=O)NCC(N)=O [ZElan053, H2N-K(dns)TrKSSrSNPrGrrHPG-CONH2] (H-K(Dansyl)T[dR]KSS[dR]SNP[dR]G[dR][dR]HPG-NH2)",1,–,–,binding of dansylated peptide to P100 fractions [2]: binding at the highest dilution only
"C[C@@H](O)[C@H](NC(=O)[C@@H](N)CCCCNS(=O)(=O)c1cccc2c(N(C)C)cccc12)C(=O)N[C@@H](CCCNC(=N)N)C(=O)N[C@@H](CCCCN)C(=O)N[C@@H](CO)C(=O)N[C@@H](CO)C(=O)N[C@H](CCCNC(=N)N)C(=O)N[C@@H](CO)C(=O)N[C@@H](CC(N)=O)C(=O)N1CCC[C@H]1C(=O)N[C@@H](CCCNC(=N)N)C(=O)NCC(=O)N[C@H](CCCNC(=N)N)C(=O)N[C@@H](CCCNC(=N)N)C(=O)N[C@@H](Cc1c[nH]cn1)C(=O)N1CCC[C@H]1C(=O)NCC(N)=O [ZElan054, H2N-K(dns)TRKSSrSNPRGrRHPG-CONH2] (H-K(Dansyl)TRKSS[dR]SNPRG[dR]RHPG-NH2)",2,–,–,–
gst-RYKHDIGCDAGVDKKSSSVRGGCGAHSSPPRAGRGPRGTMVSRL [GST-DCX8],–,bound,–,"transport (flux) across live Caco-2 monolayers, apical to basolateral [4]: higher flux than GST alone; effect of thrombin cleavage on detection of binding to fixed Caco-2 cells (fixed Caco-2 cells): significantly reduced"
gst-SARDSCPAEDGSRAVRLNGVENANTRKSSRSNPRGRRHP [GST-P31],–,bound,–,"crossreactive binding to ZElan024 (P31) and ZElan018 (PAX2) [5]: no crossreactive binding; transport (flux) across live Caco-2 monolayers, apical to basolateral [4]: higher flux than GST alone"
gst-SDHALGTNLRSDNAKEPGDYNCCGNGNSTGRXVFNRRRPSAIPT [GST-HAX42],–,weak to moderate binding,1.00,crossreactivity to ZElan018 (PAX2) and ZElan021 (HAX42) ([5]; 5 μg/ml GST fusion): exhibited crossreactivity
gst-STPPSREAYSRPYSVDSDSDTNAKHSSHNRRLRTRSRPN [GST-PAX2],–,bound,1.79,crossreactive binding to ZElan024 (P31) and ZElan018 (PAX2) [5]: no crossreactive binding
gst-TNAKHSSHNRRLRTRSRPN [GST-106],–,–,2.71,"binding of truncated GST fusion compared with full-length, fixed Caco-2 cells [3]: bound similarly to full-length PAX2; effect of thrombin cleavage on detection of binding to fixed Caco-2 cells (fixed Caco-2 cells): significantly reduced"
